Where two headings read alike, the source gives them in different places.
Test system: progranulin
Assay: Progranulin induction cellular assay (ELISA of secreted mouse PGRN)
Type: cell-based
Method in brief: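 Secreted mouse PGRN in culture medium is measured by ELISA. Cells tested are BV-2, primary cortical neurons and primary microglia. BV-2 cells are plated a day ahead, allowed 1 h to attach, then incubated 16 h.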

[1] = progranulin induction assay, mouse pMG, primary cortical neurons and BV-2 cell lines named, cell type not given, ELISA-based readout, read-out: EC50
[2] = Mus musculus, BV-2, read-out: EC50 μM

| SMILES | EC50 [1] [µM] | EC50 [2] [µM] |
| --- | --- | --- |
| O=C1N[C@H]2C[C@H](C(=O)N3CCc4ccccc4[C@@H]3c3ccc(F)cc3)OC[C@H]2O1 [Compound 5079, (3aS,6R,7aS)-6-((S)-1-(4-fluorophenyl)-1,2,3,4-tetrahydroisoquinoline-2-carbonyl)hexahydro-2H-pyrano[4,3-d]oxazol-2-one] | > 10 |  |
| CS[C@@H]1CO[C@@H](C(=O)N2CCc3ccccc3[C@@H]2c2ccc(F)cc2)C[C@@H]1N [Compound 5425, ((2R,4S,5S)-4-amino-5-(methylthio)tetrahydro-2H-pyran-2-yl)((S)-1-(4-fluorophenyl)-3,4-dihydroisoquinolin-2(1H)-yl)methanone] | 0.186 |  |
| COCCN1CCN[C@H]2C[C@H](C(=O)N3CCc4ccccc4[C@@H]3c3ccc(F)cc3)OC[C@@H]21 [Compound 5601] | 0.018 |  |
| C[C@@]1(C(=O)N2CCc3ccccc3[C@@H]2c2ccc(F)cc2)CCNCCO1 [Compound 5240] | 0.631 |  |
| C[C@]1(C(=O)N2CCc3ccccc3[C@@H]2c2ccc(F)cc2)C[C@H](N)CCO1 (single isomer, unassigned) [Compound 5236] | 0.393 |  |
| C[N-][S@+2](C)([O-])[C@H]1CO[C@@H](C(=O)N2CCc3ccccc3[C@@H]2c2ccc(F)cc2)C[C@@H]1N (single isomer, unassigned) [Compound 5556] | 0.07 |  |
| CN(C)[C@@H]1CO[C@@H](C(=O)N2CCc3ccccc3[C@@H]2c2ccc(F)cc2)C[C@@H]1O [Compound 5085, ((2R,4S,5R)-5-(dimethylamino)-4-hydroxytetrahydro-2H-pyran-2-yl)((S)-1-(4-fluorophenyl)-3,4-dihydroisoquinolin-2(1H)-yl)methanone] | 0.316 |  |
| COC[C@]1(N)CC[C@@H](C(=O)N2CCc3ccccc3[C@@H]2c2ccc(F)cc2)OC1 [Compound 5218, ((2S,5R)-5-amino-5-(methoxymethyl)tetrahydro-2H-pyran-2-yl)((S)-1-(4-fluorophenyl)-3,4-dihydroisoquinolin-2(1H)-yl)methanone] |  | 0.12 |
| N[C@H]1C[C@H](C(=O)N2CCc3ccccc3[C@@H]2c2ccc(F)cc2)OC[C@@H]1OCc1ccccc1 [Compound 5531, ((2R,4S,5R)-4-amino-5-(benzyloxy)tetrahydro-2H-pyran-2-yl)((S)-1-(4-fluorophenyl)-3,4-dihydroisoquinolin-2(1H)-yl)methanone] | 0.088 |  |
| N[C@H]1C[C@H](C(=O)N2CCc3ccccc3[C@@H]2c2ccc(F)cc2)OC[C@H]1OC(F)F [Compound 5443, ((2R,4S,5S)-4-amino-5-(difluoromethoxy)tetrahydro-2H-pyran-2-yl)((S)-1-(4-fluorophenyl)-3,4-dihydroisoquinolin-2(1H)-yl)methanone] | 0.151 |  |
| C[C@H]1CN[C@H]2C[C@H](C(=O)N3CCc4ccccc4[C@@H]3c3ccc(F)cc3)OC[C@@H]2O1 [Compound 5471, ((S)-1-(4-fluorophenyl)-3,4-dihydroisoquinolin-2(1H)-yl)((3S,4aR,7R,8aS)-3-methyloctahydropyrano[3,4-b][1,4]oxazin-7-yl)methanone] | 0.109 |  |
| CN(C)[C@H]1C[C@H](C(=O)N2CCc3ccccc3[C@@H]2c2ccc(F)cc2)OC[C@H]1O [Compound 5447, ((2R,4S,5S)-4-(dimethylamino)-5-hydroxytetrahydro-2H-pyran-2-yl)((S)-1-(4-fluorophenyl)-3,4-dihydroisoquinolin-2(1H)-yl)methanone] | 0.659 |  |
| O=C([C@H]1C[C@@H]2NCC(CO)O[C@H]2CO1)N1CCc2ccccc2[C@@H]1c1ccc(F)cc1 (single isomer, unassigned) [Compound 5535] | 0.028 |  |
| N[C@@H]1CO[C@H](C(=O)N2CCc3ccccc3[C@@H]2c2ccc(F)cc2)C[C@H]1O [Compound 5072, ((2S,4R,5R)-5-amino-4-hydroxytetrahydro-2H-pyran-2-yl)((S)-1-(4-fluorophenyl)-3,4-dihydroisoquinolin-2(1H)-yl)methanone] | 0.081 |  |
| N[C@H]1CCO[C@H](C(=O)N2CCc3ccccc3[C@@H]2c2ccc(F)cc2)C1 (single isomer, unassigned) [Compound 5027] | 0.488 |  |
| N[C@H]1CCO[C@@H](C(=O)N2CCc3ccccc3[C@@H]2c2ccc(F)cc2F)C1 [Compound 5500] | 0.19 |  |
| O=C([C@H]1C[C@@H]2NCCS(=O)(=O)[C@H]2CO1)N1CCc2ccccc2[C@@H]1c1ccc(F)cc1 [Compound 5542, ((4aR,7R,8aS)-4,4-dioxidooctahydropyrano[3,4-b][1,4]thiazin-7-yl)((S)-1-(4-fluorophenyl)-3,4-dihydroisoquinolin-2(1H)-yl)methanone] | 4.39 |  |
| O=C([C@H]1C[C@@H]2NC[C@@H](C(F)(F)F)O[C@H]2CO1)N1CCc2ccccc2[C@@H]1c1ccc(F)cc1 [Compound 5473, ((S)-1-(4-fluorophenyl)-3,4-dihydroisoquinolin-2(1H)-yl)((3S,4aR,7R,8aS)-3-(trifluoromethyl)octahydropyrano[3,4-b][1,4]oxazin-7-yl)methanone] | 0.621 |  |
| NC[C@H]1CC[C@@H](C(=O)N2CCc3ccccc3[C@@H]2c2ccc(F)cc2)O1 [Compound 5001, ((2S,5R)-5-(aminomethyl)tetrahydrofuran-2-yl)((S)-1-(4-fluorophenyl)-3,4-dihydroisoquinolin-2(1H)-yl)methanone] | 0.244 |  |

| SMILES | EC50 [1] [µM] | EC50 [2] [µM] |
| --- | --- | --- |
| CC(=O)N[C@@H]1CO[C@@H](C(=O)N2CCc3ccccc3[C@@H]2c2ccc(F)cc2)C[C@@H]1N [Compound 5427, N-((3S,4S,6R)-4-amino-6-((S)-1-(4-fluorophenyl)-1,2,3,4-tetrahydroisoquinoline-2-carbonyl)tetrahydro-2H-pyran-3-yl)acetamide] |  | 0.096 |
| N[C@H]1CO[C@H](C(=O)N2CCc3ccccc3[C@@H]2c2ccc(F)cc2)C[C@H]1O [Compound 5043, ((2S,4R,5S)-5-amino-4-hydroxytetrahydro-2H-pyran-2-yl)((S)-1-(4-fluorophenyl)-3,4-dihydroisoquinolin-2(1H)-yl)methanone] | 0.064 |  |
| CCNC[C@@]1(O)CO[C@H](C(=O)N2CCc3ccccc3[C@@H]2c2ccc(F)cc2)C1 [Compound 5031, ((2S,4R)-4-((ethylamino)methyl)-4-hydroxytetrahydrofuran-2-yl)((S)-1-(4-fluorophenyl)-3,4-dihydroisoquinolin-2(1H)-yl)methanone] |  | 0.326 |
| O=C([C@H]1C[C@@H]2NC[C@H](C(F)(F)F)O[C@H]2CO1)N1CCc2ccccc2[C@@H]1c1ccc(F)cc1 [Compound 5474, ((S)-1-(4-fluorophenyl)-3,4-dihydroisoquinolin-2(1H)-yl)((3R,4aR,7R,8aS)-3-(trifluoromethyl)octahydropyrano[3,4-b][1,4]oxazin-7-yl)methanone] | 1.51 |  |
| O=C([C@@H]1CC[C@@H](NCCO)CO1)N1CCc2ccccc2[C@@H]1c1ccc(F)cc1 [Compound 5032, ((S)-1-(4-fluorophenyl)-3,4-dihydroisoquinolin-2(1H)-yl)((2S,5R)-5-((2-hydroxyethyl)amino)tetrahydro-2H-pyran-2-yl)methanone] | 0.213 |  |
| C[N-][S@@+2](C)([O-])[C@H]1CO[C@@H](C(=O)N2CCc3ccccc3[C@@H]2c2ccc(F)cc2)C[C@@H]1N (single isomer, unassigned) [Compound 5555] | 0.029 |  |
| C#CCO[C@H]1COC(C(=O)N2CCc3ccccc3[C@@H]2c2ccc(F)cc2)C[C@@H]1NCCCOC (stereo partly shown) [Compound 5546] | 0.03 |  |
| C[C@]1(C(=O)N2CCc3ccccc3[C@@H]2c2ccc(F)cc2)OCCNC[C@@H]1O [Compound 5506] | 0.398 |  |
| CC(=O)N1CCN[C@H]2C[C@H](C(=O)N3CCc4ccccc4[C@@H]3c3ccc(F)cc3)OC[C@@H]21 (single isomer, unassigned) [Compound 5543] | 0.003 |  |
| C=CCN[C@H]1C[C@H](C(=O)N2CCc3ccccc3[C@@H]2c2ccc(F)cc2)OC[C@@H]1OC [Compound 5578] | 0.03 |  |
| CN[C@@H]1CO[C@@H](C(=O)N2CCc3ccccc3[C@@H]2c2ccc(F)cc2)C[C@@H]1O [Compound 5431, ((S)-1-(4-fluorophenyl)-3,4-dihydroisoquinolin-2(1H)-yl)((2R,4S,5R)-4-hydroxy-5-(methylamino)tetrahydro-2H-pyran-2-yl)methanone] | 0.029 |  |
| CC(C)(C)O[C@H]1CO[C@@H](C(=O)N2CCc3ccccc3[C@@H]2c2ccc(F)cc2)C[C@@H]1N [Compound 5511, ((2R,4S,5R)-4-amino-5-(tert-butoxy)tetrahydro-2H-pyran-2-yl)((S)-1-(4-fluorophenyl)-3,4-dihydroisoquinolin-2(1H)-yl)methanone] | 0.0002 |  |
| N[C@@H]1C[C@@H](C(=O)N2CCc3ccccc3[C@@H]2c2ccc(F)cc2)OC[C@@H]1O [Compound 5054, ((2S,4R,5R)-4-amino-5-hydroxytetrahydro-2H-pyran-2-yl)((S)-1-(4-fluorophenyl)-3,4-dihydroisoquinolin-2(1H)-yl)methanone] | 0.13 |  |
| O=C([C@H]1OCCNC[C@H]1F)N1CCc2ccccc2[C@@H]1c1ccc(F)cc1 [Compound 5421] | 0.843 |  |
| O=C([C@H]1C[C@@H]2NCCN(CC(F)(F)F)[C@H]2CO1)N1CCc2ccccc2[C@@H]1c1ccc(F)cc1 (single isomer, unassigned) [Compound 5545] | 0.004 |  |
| CCO[C@H]1C[C@H](C(=O)N2CCc3ccccc3[C@@H]2c2ccc(F)cc2)OC[C@H]1N [Compound 5088, ((2R,4S,5R)-5-amino-4-ethoxytetrahydro-2H-pyran-2-yl)((S)-1-(4-fluorophenyl)-3,4-dihydroisoquinolin-2(1H)-yl)methanone] | 0.074 |  |
| CCC(=O)N[C@H]1CO[C@@H](C(=O)N2CCc3ccccc3[C@@H]2c2ccc(F)cc2)C[C@@H]1N [Compound 5513, N-((3R,4S,6R)-4-amino-6-((S)-1-(4-fluorophenyl)-1,2,3,4-tetrahydroisoquinoline-2-carbonyl)tetrahydro-2H-pyran-3-yl)propionamide] | 0.03 |  |
| O=C([C@H]1CC[C@@H](NCCO)CO1)N1CCc2ccccc2[C@@H]1c1ccc(F)cc1 [Compound 5211, ((S)-1-(4-fluorophenyl)-3,4-dihydroisoquinolin-2(1H)-yl)((2R,5R)-5-((2-hydroxyethyl)amino)tetrahydro-2H-pyran-2-yl)methanone] | 0.209 |  |

Source: patent publication US20230406843A1, “Progranulin Modulators and Methods of Using the Same” (ARKUDA THERAPEUTICS, priority 2020, published 2023)
